According to ChEMBL document CHEMBL1201862, “PubChem BioAssay data set” (2004):
Active and inactive are the calls of the source.

Tests used:
[1] = Luminescence-based counterscreen assay for KLF5 inhibitors: dose response cell-based high throughput screening assay to identify cytotoxic compounds using the IEC-6 intestinal epithelial cell line. [Related pubchem assays: 1700 (Primary screen.), 1834 (Confirmation screen.), 1858 (Summary AID.), 1905 (Counterscreen.)]; assay type: functional
[2] = molecular target: T1, Microphthalmia-associated transcription factor (Homo sapiens, UniProt O75030); assay: TRPM1 promoter luciferase signal decrease, dose response, MITF inhibitor project, cell-based, SK-MEL-5, cherry-picked, set 3 (AID 493073); assay type: functional
T1 sequence (O75030 whole entry): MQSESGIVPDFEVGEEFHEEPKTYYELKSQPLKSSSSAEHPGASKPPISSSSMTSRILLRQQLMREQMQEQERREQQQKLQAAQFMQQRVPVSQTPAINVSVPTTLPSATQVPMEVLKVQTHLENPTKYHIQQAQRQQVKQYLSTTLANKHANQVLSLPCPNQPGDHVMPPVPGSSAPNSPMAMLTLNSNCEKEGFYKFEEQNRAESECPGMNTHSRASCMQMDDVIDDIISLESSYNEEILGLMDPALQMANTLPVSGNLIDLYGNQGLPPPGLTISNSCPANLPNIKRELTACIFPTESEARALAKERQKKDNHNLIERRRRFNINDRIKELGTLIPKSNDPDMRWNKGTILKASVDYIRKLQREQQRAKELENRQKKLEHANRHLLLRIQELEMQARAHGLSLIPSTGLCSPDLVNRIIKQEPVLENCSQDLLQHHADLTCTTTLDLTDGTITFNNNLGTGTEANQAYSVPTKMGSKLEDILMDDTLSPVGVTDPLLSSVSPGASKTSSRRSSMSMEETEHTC

[3] = Shn3 3'UTR reporter inhibitors, dose response, cell-based, Clone20 osteoblasts, firefly luciferase, cherry-picked (AID 624132); assay type: functional;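 also: firefly luciferase luminescence from reporter carrying the Shn3 3'UTR in osteoblasts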
[4] = HepG2 cell cytotoxicity, dose response, cytotoxicity control for Shn3 inhibitor project, CellTiter-Glo, cherry-picked (AID 624134); assay type: functional, cell-based
Protein skinhead-1 = molecular target: T2, Protein skinhead-1 (Caenorhabditis elegans, UniProt P34707); assay type: functional
T2 sequence (P34707 whole entry): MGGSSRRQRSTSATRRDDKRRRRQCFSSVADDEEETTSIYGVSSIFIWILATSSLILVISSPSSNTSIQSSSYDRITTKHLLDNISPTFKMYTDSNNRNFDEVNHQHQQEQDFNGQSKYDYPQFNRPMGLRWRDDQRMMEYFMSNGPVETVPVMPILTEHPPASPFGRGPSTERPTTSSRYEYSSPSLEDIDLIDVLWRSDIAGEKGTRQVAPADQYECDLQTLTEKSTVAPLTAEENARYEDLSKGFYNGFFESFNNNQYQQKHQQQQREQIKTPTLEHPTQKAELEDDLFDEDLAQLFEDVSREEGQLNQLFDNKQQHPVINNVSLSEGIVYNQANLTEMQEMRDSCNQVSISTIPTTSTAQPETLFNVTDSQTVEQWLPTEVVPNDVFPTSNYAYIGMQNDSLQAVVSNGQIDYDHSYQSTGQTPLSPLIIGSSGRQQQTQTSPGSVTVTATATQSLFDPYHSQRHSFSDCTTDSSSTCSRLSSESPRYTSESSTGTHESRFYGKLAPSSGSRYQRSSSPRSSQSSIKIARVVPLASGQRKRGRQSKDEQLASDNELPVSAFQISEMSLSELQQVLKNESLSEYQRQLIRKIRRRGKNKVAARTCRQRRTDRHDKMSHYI

[5] = molecular target: Photoreceptor-specific nuclear receptor (Homo sapiens, UniProt Q9Y5X4); assay type: functional, cell-based;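 also: CHO-S cells with Gal4-NCOR and VP16-NR2E3 two-hybrid luciferase reporter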
[6] = reduction of Shn3 3'UTR firefly luciferase signal, dose response, Schnurri-3 inhibitor project, cell-based, Clone20 osteoblasts, cherry-pick, set 2 (AID 720490); assay type: functional;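 also: actives lower the luminescence signal as inhibitors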
[7] = inhibitors of firefly luciferase expression or activity, dose response, H4 neuroglioma cells, luminescence (AID 1990); assay type: functional, cell-based
[8] = Luminescence Cell-Based Dose Response HTS to Identify Inhibitors of 5'UTR Stem-Loop Driven Prion Protein mRNA Translation in H4 Neuroglioblastoma Cells. [Related pubchem assays: 1827 (Project Summary), 1813 (Primary HTS)]; assay type: functional
[9] = inhibitors of SNCA 5'UTR-driven reporter translation, confirmation, H4 neuroglioma cells, luminescence (AID 1988); assay type: functional, cell-based
NS3 = NS3 (Hepatitis C virus, UniProt A3EZJ3); assay: PubChem AID 2173; design: species or system Hepacivirus hominis
[10] = Vero cell cytotoxicity, dose response, cytotoxicity control for Vif-APOBEC3G degradation inhibitor project, Vero cells (AID 1117358); assay type: functional; conditions: Human immunodeficiency virus 1, Vero
[11] = molecular target: Muscarinic acetylcholine receptor M4 (Rattus norvegicus, UniProt P08485); assay: Discovery of novel allosteric modulators of the M1 muscarinic receptor: Agonist NMS competition at M4. [Related pubchem assays: 626, 1488, 1741 ]; assay type: functional
[12] = molecular target: Muscarinic acetylcholine receptor M2 (Homo sapiens, UniProt P08172); assay: Discovery of novel allosteric modulators of the M1 muscarinic receptor: Agonist NMS competition at M2. [Related pubchem assays: 626 (Discovery of Novel Allosteric Modulators of the M1 Muscarinic Receptor: Agonist Primary Screen), 1488 (Discovery of novel allosteric modulators of the M1 muscarinic receptor: Agonist Confirmation Assay)]; assay type: functional
[13] = molecular target: Muscarinic acetylcholine receptor M5 (Homo sapiens, UniProt P08912); assay: (§1) Discovery of novel allosteric modulators of the M1 muscarinic receptor: Agonist NMS competition at M5. [Related pubchem assays: 1488 (Discovery of novel allosteric modulators of the M1 muscarinic receptor: Agonist Confirmation Assay), 626 (Discovery of Novel Allosteric Modulators of the M1 Muscarinic Receptor: Agonist Primary Screen)]; assay type: functional
[14] = molecular target: Muscarinic acetylcholine receptor M3 (Homo sapiens, UniProt P20309); assay: as §1, with “M3.” for “M5.”; assay type: functional
[15] = molecular target: Muscarinic acetylcholine receptor M1 (Rattus norvegicus, UniProt P08482); assay: Discovery of novel allosteric modulators of the M1 muscarinic receptor: Agonist NMS binding at M1. [Related pubchem assays: 626 ]
[16] = test system: Streptococcus sp. 'group A'; assay: growth inhibition of control SK(-) GAS strain, dose response, counter-screen for streptokinase expression inhibitor project, luminescence, kanamycin, BacTiterGlo, confirmation (AID 1900); assay type: functional, organism-based
[17] = cytotoxicity in HPDE-C7 cells, cell-based, fluorescence, HTS (AID 430); assay type: functional; conditions: Homo sapiens
[18] = cytotoxicity in KRAS-transformed pancreatic duct cells, primary screen, cell-based, fluorescence, HTS (AID 431); assay type: functional; conditions: Homo sapiens;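 also: cell line used: HPDE-C7K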
[19] = inhibitors of Bluetongue virus cytopathic effect, confirmation, arbovirus, BSR cells (AID 1250); assay type: functional;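 also: protection from viral cytopathic effect measured as cell viability by ATP luminescence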
Streptococcus = assay: Group A Streptococcus viability loss, dose response, counter-screen for streptokinase expression inhibitor project, luminescence, BacTiterGlo (AID 1915); assay type: functional, organism-based;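 also: potency for reduction of bacterial viability or growth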
[20] = molecular target: Sphingosine 1-phosphate receptor 5 (Homo sapiens, UniProt Q9H228); assay: Late stage counterscreen assay for S1P4 antagonists: Fluorescence dose response cell-based screening assay for antagonists of the Sphingosine 1-Phosphate Receptor 5 (S1P5). [Related pubchem assays (depositor defined):AID1510, AID1524, AID1692, AID1853, AID2332, AID489009, AID489017]; assay type: functional
[21] = molecular target: Sphingosine 1-phosphate receptor 3 (Homo sapiens, UniProt Q99500); assay: Late stage counterscreen assay for S1P4 antagonists: Fluorescence dose response cell-based screening assay for antagonists of the Sphingosine 1-Phosphate Receptor 3 (S1P3). [Related pubchem assays (depositor defined):AID1510, AID1524, AID1692, AID1853, AID2332, AID489009, AID489017]; assay type: functional
[22] = molecular target: T3, Sphingosine 1-phosphate receptor 1 (Homo sapiens, UniProt P21453); assay: Late stage counterscreen assay for S1P4 antagonists: Fluorescence dose response cell-based screening assay for antagonists of the Sphingosine 1-Phosphate Receptor 1 (S1P1). [Related pubchem assays (depositor defined):AID1510, AID1524, AID1692, AID1853, AID2332, AID489009, AID489017]; assay type: functional
Streptokinase A = molecular target: T4, Streptokinase A (Streptococcus pyogenes serotype M1, UniProt P10520); assay: S. pyogenes streptokinase expression inhibitors, potency, dose response, plasminogen activation absorbance, OD405 (AID 1914); assay type: functional, Streptococcus pyogenes M1 GAS;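 also: secreted streptokinase activity via plasminogen activation per viability signal from cell pellet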
T4 sequence (P10520 whole entry): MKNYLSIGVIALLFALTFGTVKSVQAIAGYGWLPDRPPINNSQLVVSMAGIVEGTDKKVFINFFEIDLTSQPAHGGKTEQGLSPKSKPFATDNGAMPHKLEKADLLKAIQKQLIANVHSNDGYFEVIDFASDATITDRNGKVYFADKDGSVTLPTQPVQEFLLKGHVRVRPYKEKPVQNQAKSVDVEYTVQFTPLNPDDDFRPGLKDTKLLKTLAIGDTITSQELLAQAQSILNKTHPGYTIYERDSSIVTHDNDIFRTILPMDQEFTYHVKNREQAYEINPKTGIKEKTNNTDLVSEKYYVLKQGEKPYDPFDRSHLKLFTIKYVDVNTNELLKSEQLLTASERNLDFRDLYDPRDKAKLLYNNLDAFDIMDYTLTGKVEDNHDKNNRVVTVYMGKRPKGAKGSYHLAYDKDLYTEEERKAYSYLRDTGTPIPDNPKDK

[23] = inhibitors of intracellular T. cruzi replication, confirmation, NIH3T3 host cells, beta-gal luminescence (AID 2044); assay type: functional, cell-based;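 also: intracellular parasites grown in NIH/3T3 mouse fibroblasts as host cells; luminescent beta-galactosidase reporter signal from transgenic T. cruzi replicating inside host cells; inhibitors lower the luminescence signal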
[24] = molecular target: Sphingosine 1-phosphate receptor 2 (Homo sapiens, UniProt O95136); assay: Late stage counterscreen assay for S1P4 antagonists: Fluorescence dose response cell-based screening assay for antagonists of the Sphingosine 1-Phosphate Receptor 2 (S1P2). [Related pubchem assays (depositor defined):AID1510, AID1524, AID1692, AID1853, AID2332, AID489009, AID489017]; assay type: functional
[25] = cytotoxicity toward NIH3T3 fibroblasts, dose response, counter-screen, cell-based, ATP luminescence, mouse fibroblasts (AID 2010); assay type: functional;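 also: cells exposed to compound for about 90 hours before reading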
[26] = molecular target: T5, Sphingosine 1-phosphate receptor 4 (Homo sapiens, UniProt O95977); assay: Late stage fluorescence dose response cell-based screening assay for antagonists of the Sphingosine 1-Phosphate Receptor 4 (S1P4). [Related pubchem assays: 1524 (Confirmation screen (S1P4 antagonists).), 1510 (Primary screen (S1P4 antagonists).), 1853 (Summary AID (S1P4 antagonists).), 1692 (Dose response screen (S1P4 antagonists).)]; assay type: functional
T5 sequence (O95977 whole entry): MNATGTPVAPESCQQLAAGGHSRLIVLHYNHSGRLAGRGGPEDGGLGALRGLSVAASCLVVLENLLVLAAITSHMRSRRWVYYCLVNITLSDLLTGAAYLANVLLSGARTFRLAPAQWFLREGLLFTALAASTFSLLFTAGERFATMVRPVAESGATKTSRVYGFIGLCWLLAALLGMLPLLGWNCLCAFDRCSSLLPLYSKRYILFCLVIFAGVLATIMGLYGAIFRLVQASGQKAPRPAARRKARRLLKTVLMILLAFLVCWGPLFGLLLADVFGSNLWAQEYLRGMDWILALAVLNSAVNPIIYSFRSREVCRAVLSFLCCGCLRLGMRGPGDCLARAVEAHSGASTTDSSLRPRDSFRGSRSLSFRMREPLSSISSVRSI

[27] = molecular target: T5, Sphingosine 1-phosphate receptor 4; assay: Fluorescence dose response cell-based high throughput screening assay for antagonists of the Sphingosine 1-Phosphate Receptor 4 (S1P4). [Related pubchem assays: 1524 (Confirmation in triplicates.), 1510 (Primary screen.)]; assay type: functional
[28] = molecular target: T3, Sphingosine 1-phosphate receptor 1; assay type: functional
Paired box protein Pax-8 = Paired box protein Pax-8 (Homo sapiens, UniProt Q06710); assay: inhibitors of PAX8-driven TPO luciferase reporter, dose response, RMG-I cells, cherry-pick (AID 687027); assay type: functional, cell-based;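 also: luciferase reporter driven by Pax8 target thyroperoxidase promoter measured by SteadyGlo luminescence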
Sequence of Paired box protein Pax-8 (Q06710 whole entry): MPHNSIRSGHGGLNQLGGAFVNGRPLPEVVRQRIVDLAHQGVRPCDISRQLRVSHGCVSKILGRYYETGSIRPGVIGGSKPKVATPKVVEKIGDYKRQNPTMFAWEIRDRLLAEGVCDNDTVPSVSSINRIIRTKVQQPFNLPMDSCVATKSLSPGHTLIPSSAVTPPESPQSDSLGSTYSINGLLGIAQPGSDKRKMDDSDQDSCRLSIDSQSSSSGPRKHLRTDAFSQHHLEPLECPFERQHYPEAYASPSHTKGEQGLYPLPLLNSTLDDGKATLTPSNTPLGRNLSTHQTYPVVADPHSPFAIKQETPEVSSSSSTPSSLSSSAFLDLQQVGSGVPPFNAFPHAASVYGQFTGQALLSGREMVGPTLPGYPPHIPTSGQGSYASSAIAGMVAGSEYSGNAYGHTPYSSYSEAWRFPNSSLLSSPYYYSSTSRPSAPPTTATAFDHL

T3 sequence (P21453 whole entry): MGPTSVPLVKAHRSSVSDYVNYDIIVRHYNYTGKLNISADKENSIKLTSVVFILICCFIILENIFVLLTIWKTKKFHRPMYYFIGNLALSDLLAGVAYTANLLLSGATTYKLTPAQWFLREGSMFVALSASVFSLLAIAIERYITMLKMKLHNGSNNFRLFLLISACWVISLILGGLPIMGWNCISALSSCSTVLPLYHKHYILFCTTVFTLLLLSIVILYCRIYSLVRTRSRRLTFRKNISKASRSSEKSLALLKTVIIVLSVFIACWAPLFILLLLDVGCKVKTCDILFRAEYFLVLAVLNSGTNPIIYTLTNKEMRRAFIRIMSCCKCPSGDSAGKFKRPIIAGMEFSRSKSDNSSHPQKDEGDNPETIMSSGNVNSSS
Sequence of Muscarinic acetylcholine receptor M1 (P08482 whole entry): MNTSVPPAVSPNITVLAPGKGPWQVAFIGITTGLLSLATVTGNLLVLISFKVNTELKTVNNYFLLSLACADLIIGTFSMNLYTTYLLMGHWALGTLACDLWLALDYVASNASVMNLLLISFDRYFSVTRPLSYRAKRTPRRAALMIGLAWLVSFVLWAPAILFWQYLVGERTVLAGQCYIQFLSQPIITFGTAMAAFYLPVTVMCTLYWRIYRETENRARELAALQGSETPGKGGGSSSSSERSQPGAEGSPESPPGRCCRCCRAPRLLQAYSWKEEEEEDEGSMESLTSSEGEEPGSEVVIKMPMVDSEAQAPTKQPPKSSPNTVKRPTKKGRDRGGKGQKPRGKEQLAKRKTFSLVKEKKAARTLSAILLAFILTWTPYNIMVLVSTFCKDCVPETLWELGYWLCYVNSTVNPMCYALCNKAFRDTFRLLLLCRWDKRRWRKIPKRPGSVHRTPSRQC
Sequence of Muscarinic acetylcholine receptor M3 (P20309 whole entry): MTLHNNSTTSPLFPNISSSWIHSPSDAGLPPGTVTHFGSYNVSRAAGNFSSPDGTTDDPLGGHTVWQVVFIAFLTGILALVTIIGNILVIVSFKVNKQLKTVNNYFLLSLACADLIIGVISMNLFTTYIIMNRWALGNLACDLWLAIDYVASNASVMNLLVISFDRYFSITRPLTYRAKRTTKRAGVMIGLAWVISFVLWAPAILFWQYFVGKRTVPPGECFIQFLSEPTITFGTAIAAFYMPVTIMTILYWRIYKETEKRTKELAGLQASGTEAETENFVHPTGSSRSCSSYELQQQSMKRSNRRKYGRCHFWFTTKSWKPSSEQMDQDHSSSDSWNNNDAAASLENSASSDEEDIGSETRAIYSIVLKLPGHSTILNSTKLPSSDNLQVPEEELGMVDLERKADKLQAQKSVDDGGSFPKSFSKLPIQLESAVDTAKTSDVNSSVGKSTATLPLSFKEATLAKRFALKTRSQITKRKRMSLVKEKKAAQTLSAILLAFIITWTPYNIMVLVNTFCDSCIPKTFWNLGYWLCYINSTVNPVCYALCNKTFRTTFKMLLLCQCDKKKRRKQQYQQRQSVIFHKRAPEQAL
Sequence of Muscarinic acetylcholine receptor M4 (P08485 whole entry): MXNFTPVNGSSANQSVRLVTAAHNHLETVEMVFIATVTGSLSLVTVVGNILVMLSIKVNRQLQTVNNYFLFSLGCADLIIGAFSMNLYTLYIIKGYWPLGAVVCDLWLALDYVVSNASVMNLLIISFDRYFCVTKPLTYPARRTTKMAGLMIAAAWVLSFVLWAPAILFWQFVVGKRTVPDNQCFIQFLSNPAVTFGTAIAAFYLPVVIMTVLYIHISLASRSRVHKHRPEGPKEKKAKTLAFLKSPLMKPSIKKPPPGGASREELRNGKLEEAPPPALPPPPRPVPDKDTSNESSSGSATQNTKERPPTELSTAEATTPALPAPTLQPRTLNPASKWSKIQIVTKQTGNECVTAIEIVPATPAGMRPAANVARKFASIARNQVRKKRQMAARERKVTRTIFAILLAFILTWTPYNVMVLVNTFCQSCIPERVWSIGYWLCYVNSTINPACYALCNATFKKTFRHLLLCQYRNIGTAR
Sequence of Sphingosine 1-phosphate receptor 3 (Q99500 whole entry): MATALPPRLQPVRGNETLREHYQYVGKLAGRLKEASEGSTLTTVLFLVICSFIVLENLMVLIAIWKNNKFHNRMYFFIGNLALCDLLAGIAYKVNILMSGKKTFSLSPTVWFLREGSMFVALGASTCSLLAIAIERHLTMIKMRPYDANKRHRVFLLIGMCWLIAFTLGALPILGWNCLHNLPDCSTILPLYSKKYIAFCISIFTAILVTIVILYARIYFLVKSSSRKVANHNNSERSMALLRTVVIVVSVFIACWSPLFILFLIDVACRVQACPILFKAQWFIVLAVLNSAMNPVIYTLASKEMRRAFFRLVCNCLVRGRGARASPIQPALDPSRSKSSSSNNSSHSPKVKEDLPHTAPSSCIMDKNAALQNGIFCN
Sequence of Photoreceptor-specific nuclear receptor (Q9Y5X4 whole entry, the tested form may be a part): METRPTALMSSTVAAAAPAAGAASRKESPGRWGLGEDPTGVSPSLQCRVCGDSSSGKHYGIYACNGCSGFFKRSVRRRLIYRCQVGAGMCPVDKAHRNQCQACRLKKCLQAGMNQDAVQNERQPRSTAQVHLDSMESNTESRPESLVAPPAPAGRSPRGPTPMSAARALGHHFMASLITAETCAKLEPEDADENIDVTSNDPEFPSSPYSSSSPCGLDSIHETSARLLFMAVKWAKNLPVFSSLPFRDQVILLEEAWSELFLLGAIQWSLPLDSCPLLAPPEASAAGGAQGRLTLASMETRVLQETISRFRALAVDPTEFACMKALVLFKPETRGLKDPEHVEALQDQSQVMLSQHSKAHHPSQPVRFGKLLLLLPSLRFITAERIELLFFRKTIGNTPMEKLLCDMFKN
Sequence of NS3 (A3EZJ3 whole entry): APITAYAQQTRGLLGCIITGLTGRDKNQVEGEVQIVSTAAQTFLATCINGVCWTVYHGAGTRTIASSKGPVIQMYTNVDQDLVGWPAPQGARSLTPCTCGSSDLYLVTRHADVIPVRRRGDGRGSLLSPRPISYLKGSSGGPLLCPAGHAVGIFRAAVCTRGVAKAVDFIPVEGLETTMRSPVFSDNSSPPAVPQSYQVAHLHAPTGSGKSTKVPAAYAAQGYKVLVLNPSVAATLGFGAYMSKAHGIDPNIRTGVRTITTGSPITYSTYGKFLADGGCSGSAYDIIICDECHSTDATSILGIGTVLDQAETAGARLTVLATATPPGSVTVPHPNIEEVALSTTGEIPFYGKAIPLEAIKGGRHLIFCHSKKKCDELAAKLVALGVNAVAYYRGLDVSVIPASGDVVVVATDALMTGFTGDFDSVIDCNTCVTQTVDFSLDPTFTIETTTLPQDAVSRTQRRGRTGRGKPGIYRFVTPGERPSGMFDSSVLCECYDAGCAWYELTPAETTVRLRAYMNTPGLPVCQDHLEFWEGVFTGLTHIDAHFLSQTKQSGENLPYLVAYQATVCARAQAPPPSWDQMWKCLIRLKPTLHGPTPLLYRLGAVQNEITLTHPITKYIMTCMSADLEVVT
Sequence of Muscarinic acetylcholine receptor M5 (P08912 whole entry): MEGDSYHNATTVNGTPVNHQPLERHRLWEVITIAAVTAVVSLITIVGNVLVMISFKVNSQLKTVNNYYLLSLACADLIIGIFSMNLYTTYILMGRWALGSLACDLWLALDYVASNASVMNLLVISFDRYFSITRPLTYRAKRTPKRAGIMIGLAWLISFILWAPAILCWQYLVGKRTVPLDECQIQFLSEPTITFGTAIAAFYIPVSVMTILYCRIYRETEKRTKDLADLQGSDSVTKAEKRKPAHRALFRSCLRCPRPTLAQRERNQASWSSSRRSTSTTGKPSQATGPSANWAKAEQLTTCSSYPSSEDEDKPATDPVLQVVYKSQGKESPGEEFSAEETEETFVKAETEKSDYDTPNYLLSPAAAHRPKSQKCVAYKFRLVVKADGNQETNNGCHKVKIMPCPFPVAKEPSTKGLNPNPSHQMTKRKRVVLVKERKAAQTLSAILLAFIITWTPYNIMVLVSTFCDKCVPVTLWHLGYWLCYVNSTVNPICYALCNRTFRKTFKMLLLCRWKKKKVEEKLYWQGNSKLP
Sequence of Sphingosine 1-phosphate receptor 5 (Q9H228 whole entry): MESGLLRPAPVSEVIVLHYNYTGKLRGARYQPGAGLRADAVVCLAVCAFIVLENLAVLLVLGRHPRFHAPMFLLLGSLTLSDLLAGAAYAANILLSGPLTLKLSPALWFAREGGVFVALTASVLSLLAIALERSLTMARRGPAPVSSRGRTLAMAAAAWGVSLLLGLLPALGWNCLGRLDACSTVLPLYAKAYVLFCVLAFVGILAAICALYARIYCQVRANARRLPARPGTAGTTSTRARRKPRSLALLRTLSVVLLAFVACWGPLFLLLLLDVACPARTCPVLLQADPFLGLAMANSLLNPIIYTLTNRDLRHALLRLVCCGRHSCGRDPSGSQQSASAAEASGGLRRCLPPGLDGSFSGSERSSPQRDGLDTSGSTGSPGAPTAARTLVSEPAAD

In the case of CC(C)(C)C(=O)Nc1cc2nn(-c3ccccc3)nc2cc1Cl, the IC50 [1] was > 39.8 µM (not active), the AC50 [2] was 0.495 µM (active) and the AC50 [3] was 5.16 µM (active). The AC50 [4] was > 70 µM (inactive), the IC50 (Protein skinhead-1) was > 100 µM (inactive) and the IC50 [5] was 0.152 µM (active). The AC50 [6] was 49.5 µM (active).
With O=c1c2c(-c3ccco3)csc2nc(SCc2cn3cccnc3n2)n1-c1ccccc1 the EC50 [7] was 13.9 µM (active), the EC50 [8] was > 120 µM (not active) and the EC50 [9] was 38.5 µM (active). For the same compound, the IC50 (NS3) was 49.7 µM (not active) and the CC50 [10] was > 40 µM (active).
In the case of CCOC(=O)N1CCC(NCCNC(=O)c2ccccc2C)CC1, the EC50 [11] was 240 µM (inconclusive), the EC50 [12] was 95.7 µM (inconclusive) and the EC50 [13] was 24.1 µM (inconclusive). For the same compound, the EC50 [14] was 360 µM (inconclusive) and the EC50 [15] was 25.1 µM (inconclusive).
For CCOC(=O)C1=Nc2ccccc2C1=[N+]=[N-], the EC50 [16] was 0.379 µM (active), the EC50 [17] was 19.9 µM (active) and the EC50 [18] was 7.83 µM (active). For the same compound, the IC50 [19] was 21.4 µM (active) and the EC50 (Streptococcus) was 2.27 µM (active).
With O=C(Nc1ccccc1)Nc1cc(OCC(F)(F)F)cc(OCC(F)(F)F)c1 the IC50 [20] was 1.3 µM (active), the IC50 [21] was 1.68 µM (active) and the EC50 [7] was 6.81 µM (active). For the same compound, the EC50 [16] was 4.56 µM (active), the IC50 [22] was > 25 µM (inactive) and the EC50 [8] was 7.18 µM (active). For the same compound, the EC50 [9] was 6.09 µM (active), the EC50 (Streptokinase A) was 18.1 µM (active) and the EC50 [23] was 0.719 µM (active). The IC50 [24] was 2.35 µM (active), the EC50 [25] was < 6 µM (inconclusive) and the IC50 [26] was 0.0827 µM (active). The IC50 [27] was 0.26 µM (active), the IC50 [28] was > 49.8 µM (not active) and the EC50 (Streptococcus) was 9.63 µM (active). The AC50 [3] was 6.4 µM (active), the AC50 [4] was 6.97 µM (active) and the AC50 (Paired box protein Pax-8) was 6.93 µM (active).
